Literature values, collected in US20050163842A1, “Rosiglitazone and metformin formulations” (priority 2003, published 2005).

How the values were obtained:
[1] = system: animal models of type 2 diabetes

SMILES: CN(CCOc1ccc(CC2SC(=O)NC2=O)cc1)c1ccccn1 (stereo not drawn) [Rosiglitazone, 5-[4-[2-(N-methyl-N-(2-pyridyl)amino)ethoxy]benzyl]thiazolidine-2,4-dione]
- development of overt diabetes (mouse models of diabetes; mouse models): prevent the development of overt diabetes
- blood glucose levels and hyperinsulinemia (mouse models of diabetes; several mouse models of diabetes): reduce blood glucose levels and hyperinsulinemia
- hypoglycemia or impaired glucose tolerance [1]: did not induce hypoglycemia or impaired glucose tolerance
